From patent US9376387B2 (priority 2013, dated 2016)

Key:
[1] = target: T1, hAChE (human erythrocyte membranes as a AChE source) (Homo sapiens, UniProt P22303); assay: acetylcholinesterase (AChE) activity, modified Ellman method; type: biochemical
T1 construct: human erythrocyte membranes as a AChE source; from tissue; host or cells: human erythrocyte membranes

EqBuChE = EqBuChE (Equus caballus, UniProt P81908); assay: biochemical; conditions: EqBuChE IC50
[2] = hAChE IC50, modified Ellman method, acetylthiocholine iodide substrate, pH=7.4
[3] = IC50, enzyme not named in the examples, AChE per the Table

Chain of EqBuChE (P81908 whole entry): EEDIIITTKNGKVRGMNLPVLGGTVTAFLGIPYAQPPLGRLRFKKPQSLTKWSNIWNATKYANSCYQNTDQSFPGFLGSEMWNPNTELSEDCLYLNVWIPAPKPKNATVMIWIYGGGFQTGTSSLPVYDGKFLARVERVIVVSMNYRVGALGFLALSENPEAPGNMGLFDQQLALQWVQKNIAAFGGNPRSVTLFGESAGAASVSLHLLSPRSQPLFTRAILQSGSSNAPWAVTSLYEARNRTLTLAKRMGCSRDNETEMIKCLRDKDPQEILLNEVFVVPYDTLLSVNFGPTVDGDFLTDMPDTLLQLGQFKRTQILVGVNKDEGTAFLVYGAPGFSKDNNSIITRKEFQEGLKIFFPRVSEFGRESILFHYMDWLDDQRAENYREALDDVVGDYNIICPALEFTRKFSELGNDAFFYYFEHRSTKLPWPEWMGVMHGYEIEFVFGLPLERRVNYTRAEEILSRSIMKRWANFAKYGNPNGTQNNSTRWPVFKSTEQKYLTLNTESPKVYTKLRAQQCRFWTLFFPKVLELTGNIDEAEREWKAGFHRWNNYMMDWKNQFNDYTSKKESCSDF
T1 sequence (P22303 32-617 isoform P22303-2 limits assumed): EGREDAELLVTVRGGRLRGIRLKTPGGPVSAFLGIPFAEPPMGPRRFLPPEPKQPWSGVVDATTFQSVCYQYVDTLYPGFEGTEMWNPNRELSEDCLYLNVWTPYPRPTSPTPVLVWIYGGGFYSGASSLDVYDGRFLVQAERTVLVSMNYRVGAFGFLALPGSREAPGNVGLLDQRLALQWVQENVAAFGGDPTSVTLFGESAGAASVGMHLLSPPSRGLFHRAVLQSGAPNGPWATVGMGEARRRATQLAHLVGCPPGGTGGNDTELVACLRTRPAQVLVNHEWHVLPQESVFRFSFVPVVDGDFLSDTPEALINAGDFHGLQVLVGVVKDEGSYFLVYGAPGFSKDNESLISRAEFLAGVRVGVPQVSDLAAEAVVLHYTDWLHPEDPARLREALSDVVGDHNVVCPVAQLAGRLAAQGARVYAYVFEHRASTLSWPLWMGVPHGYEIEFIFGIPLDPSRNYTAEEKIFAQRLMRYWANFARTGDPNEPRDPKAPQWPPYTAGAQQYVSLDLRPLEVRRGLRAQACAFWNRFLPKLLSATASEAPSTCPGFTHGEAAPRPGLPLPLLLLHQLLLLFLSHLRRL

SMILES	IC50 [1, 2]	IC50 (EqBuChE)	IC50 [1, 3]
COc1cc2c(cc1OC)C(=O)C(Cc1cc[n+](Cc3ccccc3C)cc1Br)C2 (stereo not shown) [Compound 141, 2-[[3-bromo-1-(o-tolylmethyl)pyridin-1-ium-4-yl]methyl]-5,6-dimethoxy-indan-1-one bromide]	0.053 nM	2.29 µM	–
COc1ccc2c(c1)CCC(Cc1cc[n+](Cc3cccc(C(F)(F)F)c3)cc1C(C)=O)C2=O (stereo not shown) [Compound 124, 2-[[3-acetyl-1-[[3-(trifluoromethyl)phenyl]methyl]pyridin-1-ium-4-yl]methyl]-6-methoxy-tetralin-1-one bromide]	308 nM	2.17 µM	–
COc1cc2c(cc1OC)C(=O)C(Cc1cc[n+](Cc3ccccc3)cc1C#N)C2 (stereo not shown) [Compound 26, 1-Benzyl-3-cyano-4-(5,6-dimethoxy-1-oxo-2,3-dihydro-1H-inden-2-yl)methylpyridinium iodide]	11.3 nM	–	11.2 nM
COc1ccc2c(c1)CCC(CC1C=CN(Cc3cccc(C)c3)C=C1C(C)=O)C2=O (stereo not shown) [Compound 61, 2-[[3-acetyl-1-(m-tolylmethyl)-4H-pyridin-4-yl]methyl]-6-methoxy-tetralin-1-one]	–	4.02 µM	–
COc1ccc2c(c1)CCC(Cc1cc[n+](Cc3ccc(F)cc3)cc1C(C)=O)C2=O (stereo not shown) [Compound 129, 2-[[3-acetyl-1-[(4-fluorophenyl)methyl]pyridin-1-ium-4-yl]methyl]-6-methoxy-tetralin-1-one bromide]	141 nM	0.171 µM	–
COc1ccc2c(c1)CCC(CC1C=CN(Cc3ccccc3Cl)C=C1C(C)=O)C2=O (stereo not shown) [Compound 157, 2-[[3-acetyl-1-[(2-chlorphenyl)methyl]-4H-pyridin-4-yl]methyl]-6-methoxy-tetralin-1-one]	–	5.78 µM	–
COc1cc2c(cc1OC)C(=O)C(CC1C=CN(Cc3ccccc3C)C=C1C(C)=O)C2 (stereo not shown) [Compound 169, 2-[[3-acetyl-1-(o-tolylmethyl)-4H-pyridin-4-yl]methyl]-5,6-dimethoxy-indan-1-one]	428 nM	–	–
COc1cc2c(cc1OC)C(=O)C(CC1C=CN(Cc3ccccc3)C=C1C(C)=O)C2 (stereo not shown) [Compound 34, 1-Benzyl-4-(5,6-dimethoxy-1-oxo-2,3-dihydro-1H-inden-2-yl)methyl-1,4-dihydropyridine-3-acetyl]	–	–	528 nM
COc1ccc2c(c1)CCC(CC1C=CN(Cc3ccccc3C)C=C1C(C)=O)C2=O (stereo not shown) [Compound 59, 2-[[3-acetyl-1-(o-tolylmethyl)-4H-pyridin-4-yl]methyl]-6-methoxy-tetralin-1-one]	–	8.27 µM	–
COc1cc2c(cc1OC)C(=O)/C(=C/c1cc[n+](Cc3ccccc3)cc1C(C)=O)C2 [Compound 149, (2E)-2-[(3-actyl-1-benzyl-pyridin-1-ium-4-yl)methylene]-5,6-dimethoxy-indan-1-one bromide]	20.1 nM	–	–
COc1ccc2c(c1)CCC(CC1C=CN(Cc3ccccc3F)C=C1C(C)=O)C2=O (stereo not shown) [Compound 55, 2-[[3-acetyl-1-[(2-fluorophenyl)methyl]-4H-pyridin-4-yl]methyl]-6-methoxy-tetralin-1-one]	–	6.01 µM	–
COc1ccc2c(c1)CCC(CC1C=CN(Cc3ccccc3C)C=C1C(C)=O)C2=O (racemic) [Compound 160, 2-[[3-acetyl-1-(o-tolylmethyl)-4H-pyridin-4-yl]methyl]-6-methoxy-tetralin-1-one]	–	8.27 µM	–
CC(=O)c1c[n+](Cc2ccccc2C)ccc1CC1Cc2cc(Cl)ccc2C1=O (stereo not shown) [Compound 136, 2-[[3-acetyl-1-(o-tolylmethyl)pyridin-1-ium-4-yl]methyl]-5-chloro-indan-1-one bromide]	262 nM	–	–
COc1cc2c(cc1OC)C(=O)C(CC1C=CN(Cc3ccccc3)C=C1C#N)C2 (stereo not shown) [Compound 27, 1-Benzyl-4-(5,6-dimethoxy-1-oxo-2,3-dihydro-1H-inden-2-yl)methyl-1,4-dihydropyridine-3-carbonitrile]	–	–	175 nM
CC(=O)C1=CN(Cc2ccccc2C)C=CC1CC1Cc2cc(C)ccc2C1=O (stereo not shown) [Compound 163, 2-[[3-acetyl-1-(o-tolylmethyl)-4H-pyridin-4-yl]methyl]-5-methyl-indan-1-one]	–	4.82 µM	–
COc1ccc2c(c1)CCC(CC1C=CN(Cc3ccccc3C(F)(F)F)C=C1C(C)=O)C2=O (stereo not shown) [Compound 67, 2-[[3-acetyl-1-[[2-(trifluoromethyl)phenyl]methyl]-4H-pyridin-4-yl]methyl]-6-methoxy-tetralin-1-one]	–	3.05 µM	–
COc1cc2c(cc1OC)C(=O)C(Cc1cc[n+](Cc3ccccc3)cc1C(C)=O)C2 (stereo not shown) [Compound 33, 1-Benzyl-3-actyl-4-(5,6-dimethoxy-1-oxo-2,3-dihydro-1H-inden-2-yl)methyl pyridinium bromide]	–	–	18 nM
COc1ccc2c(c1)CC(CC1C=CN(Cc3ccccc3C)C=C1C(C)=O)C2=O (stereo not shown) [Compound 164, 2-[[3-acetyl-1-(o-tolylmethyl)-4H-pyridin-4-yl]methyl]-5-methoxy-indan-1-one]	–	5.44 µM	–
COc1cc2c(cc1OC)C(=O)C(Cc1cc[n+](Cc3ccccc3)cc1)C2 (stereo not shown) [Compound 23, 1-Benzyl-4-((5,6-dimethoxy-1-oxo-2,3-dihydro-1H-inden-2-yl)methyl)pyridinium iodide]	–	–	36.8 nM
COc1ccc(C(=O)N(CCC2C=CN(Cc3ccccc3)C=C2C(C)=O)c2ccccc2)cc1OC (stereo not shown) [Compound 32, N-[2-(3-acetyl-1-benzyl-4H-pyridin-4-yl)ethyl]-3,4-dimethoxy-N-phenyl-benzamide]	–	6.21 µM	–
COc1ccc2c(c1)CCC(CC1C=CN(Cc3ccccc3C)C=C1C(C)=O)C2=O (single isomer, unassigned) [Compound 160-C, 2-[[3-acetyl-1-(o-tolylmethyl)-4H-pyridin-4-yl]methyl]-6-methoxy-tetralin-1-one]	–	4.7 µM	–
CC(=O)C1=CN(Cc2ccccc2C)C=CC1CC1Cc2cc3c(cc2C1=O)OCO3 (stereo not shown) [Compound 165, 6-[[3-acetyl-1-(o-tolylmethyl)-4H-pyridin-4-yl]methyl]-5,6-dihydrocyclopenta[f][1,3]benzodioxol-7-one]	–	4.61 µM	–
COc1ccc(C(=O)N(CCCC2C=CN(Cc3ccccc3)C=C2C(C)=O)c2ccccc2)cc1OC (stereo not shown) [Compound 36, N-[3-(3-acetyl-1-benzyl-4H-pyridin-4-yl)propyl]-3,4-dimethoxy-N-phenyl-benzamide]	–	4.6 µM	–
COc1cc2c(cc1OC)C(=O)C(Cc1cc[n+](Cc3ccccc3)cc1C(C)=O)CC2 (stereo not shown) [Compound 132, 2-[(3-actyl-1-benzyl-pyridin-1-ium-4-yl)methyl]-6,7-dimethoxy-tetralin-1-one bromide]	24.2 nM	–	–
COc1ccc2c(c1)CCC(CC1C=CN(Cc3ccccc3C)C=C1C(C)=O)C2=O (single isomer, unassigned) [Compound 160-B, 2-[[3-acetyl-1-(o-tolylmethyl)-4H-pyridin-4-yl]methyl]-6-methoxy-tetralin-1-one]	–	5.65 µM	–
COc1ccc2c(c1)CCC(CC1C=CN(Cc3cccc(F)c3)C=C1C(C)=O)C2=O (stereo not shown) [Compound 156, 2-[[3-acetyl-1-[(3-fluorophenyl)methyl]-4H-pyridin-4-yl]methyl]-6-methoxy-tetralin-1-one]	–	4.4 µM	–
COc1ccc2c(c1)CCC(CC1C=CN(Cc3ccc(F)cc3)C=C1C(C)=O)C2=O (stereo not shown) [Compound 155, 2-[[3-acetyl-1-[(4-fluorophenyl)methyl]-4H-pyridin-4-yl]methyl]-6-methoxy-tetralin-1-one]	–	2.27 µM	–
